Measurements taken from patent US20240245059A1 (priority 2021, published 2024).

Assays:
[1] = system: Fusarium graminearum; type: in vivo; conditions: 2 L/ha of 10% w/w solution; one application 2 days after inoculation; incidence of affected leaves vs untreated
[2] = system: Ca. Phytoplasma vitis; assay: Open field testing on phytoplasma, ddPCR quantification of DNA and RNA in Pervinca rosea; type: in vivo; conditions: 2 L/ha, endotherapy treatment, 48 hours after exposure, high values = reduced/no antibacterial activity; for % DNA: untreated 91; for % RNA: untreated 94
Procedure: Open Filed Testing on Phytoplasma—Antibacterial Activity on Ca. Phytoplasma vitis by Mixtures of Fatty Acids and Peptides
The activity on phytoplasma of three peptides (SEQ.ID.NO.: 1, 2 and 9), of crotonic and pelargonic acid and of the mixtures of these fatty acids with the aforementioned peptides were evaluated on Pervinca rosea suitably contaminated by Ca. Phytoplasma vitis.
The peptides of SEQ.ID.NO.: 1, 2 and 9 were dissolved in water at a concentration of 10% w/w. Aqueous solutions of crotonic and pelargonic acids were prepared at a concentration of 10% w/w. Aqueous solutions of peptides and solutions of fatty acids were mixed together, in order to obtain six different mixtures at a concentration of 10% w/w of peptide and acid.
The evaluation of the efficacy of the products used was evaluated with ddPCR (Droplet Digital PCR) technique for the quantification of the genetic material (DNA and RNA) after 48 hours from exposure to endotherapy treatment. High % DNA and RNA values are related to reduced/no antibacterial activity.

| Compound | Efficacy (%) 1° check [1] [%] | Efficacy (%) 2° check [1] [%] | Efficacy (%) 3° check [1] [%] | % DNA [2] [%] | % RNA [2] [%] |
| --- | --- | --- | --- | --- | --- |
| C/C=C/C(=O)O [Crotonic acid] | 8 | 7 | 10 | 76 | 84 |
| CCCCCCCCC(=O)O [Pelargonic acid] | 10 | 8 | 9 | 84 | 86 |
| Hs_AFP1: plant defensin antimicrobial peptide, SEQ.ID.NO: 1, per se known (DGVKLCDVPSGTWSGHCGSSSKCSQQCKDREHFAYGGACHYQFPSVKCFCKRQC; None) | 35 | 27.4 | 26.5 | 75 | 78 |
| Ps_Def1: plant defensin antimicrobial peptide, SEQ.ID.NO: 9 (RMCKTPSGKFKGYCVNNTNCKNVCRTEGFPTGSCDFHVAGRKCYCYKPCP; None) | 30 | 27 | 32 | 82 | 80 |
| Rs_AFP2: plant defensin antimicrobial peptide, SEQ.ID.NO: 2, per se known (QKLCQRPSGTWSGVCGNNNACKNQCIRLEKARHGSCNYVFPAHKCICYFPC; None) | 38 | 34 | 25.4 | 81 | 80 |
